Assay results taken from US9469650B2, “Melampomagnolide B derivatives” (BOARD OF TRUSTEES OF THE UNIVERSITY OF ARKANSAS, priority 2013, dated 2016).

Assays:
[1] = tested on: SNB-75; test: panel of 60 human tumor cell lines, growth inhibition (CNS Cancer); details: Homo sapiens; for GI50: SNB-75; for CC50: SNB-75, read-out: LC50; for IC (TGI): SNB-75, read-out: TGI
[2] = tested on: CCRF-CEM; test: panel of 60 human tumor cell lines, growth inhibition (Leukemia); details: Homo sapiens; for CC50: read-out: LC50; for IC (TGI): read-out: TGI
[3] = tested on: SK-MEL-28; test: panel of 60 human tumor cell lines, growth inhibition (Melanoma); details: Homo sapiens; for GI50: SK-MEL-28; for CC50: SK-MEL-28, read-out: LC50; for IC (TGI): SK-MEL-28, read-out: TGI
[4] = tested on: T-47D; test: panel of 60 human tumor cell lines, growth inhibition (Breast Cancer); details: Homo sapiens, T47D; for CC50: read-out: LC50; for IC (TGI): read-out: TGI
[5] = tested on: SK-OV-3; test: panel of 60 human tumor cell lines, growth inhibition (Ovarian Cancer); details: Homo sapiens; for GI50: SK-OV-3; for CC50: SK-OV-3, read-out: LC50; for IC (TGI): SK-OV-3, read-out: TGI
[6] = tested on: A498; test: panel of 60 human tumor cell lines, growth inhibition (Renal Cancer); details: Homo sapiens; for GI50: A498; for CC50: A498, read-out: LC50; for IC (TGI): A498, read-out: TGI
[7] = tested on: HCC-2998; test: panel of 60 human tumor cell lines, growth inhibition (Colon Cancer); details: Homo sapiens; for GI50: HCC 2998; for CC50: HCC 2998, read-out: LC50; for IC (TGI): HCC 2998, read-out: TGI
[8] = tested on: NCI/ADR-RES; test: panel of 60 human tumor cell lines, growth inhibition (Ovarian Cancer); details: Homo sapiens; for CC50: read-out: LC50; for IC (TGI): read-out: TGI
[9] = tested on: NCI-H23; test: panel of 60 human tumor cell lines, growth inhibition (Non-Small Cell Lung Cancer); details: Homo sapiens; for GI50: NCI-H23; for CC50: NCI-H23, read-out: LC50; for IC (TGI): NCI-H23, read-out: TGI
[10] = tested on: DU-145; test: panel of 60 human tumor cell lines, growth inhibition (Prostate Cancer); details: Homo sapiens; for GI50: DU-145; for CC50: DU-145, read-out: LC50; for IC (TGI): DU-145, read-out: TGI
[11] = tested on: 786-0; test: panel of 60 human tumor cell lines, growth inhibition (Renal Cancer); details: Homo sapiens; for GI50: 786-0; for CC50: 786-0, read-out: LC50; for IC (TGI): 786-0, read-out: TGI
[12] = tested on: KM12; test: panel of 60 human tumor cell lines, growth inhibition (Colon Cancer); details: for GI50 / CC50: Homo sapiens; for GI50 / Percent Growth / TGI: KM12; for CC50: KM12, read-out: LC50; for TGI: NCI five dose
[13] = tested on: UACC-62; test: panel of 60 human tumor cell lines, growth inhibition (Melanoma); details: Homo sapiens; for GI50: UACC-62; for CC50: UACC-62, read-out: LC50; for IC (TGI): UACC-62, read-out: TGI
[14] = tested on: NCI-H522; test: panel of 60 human tumor cell lines, growth inhibition (Non-Small Cell Lung Cancer); details: Homo sapiens; for GI50: NCI-H522; for CC50: NCI-H522, read-out: LC50; for IC (TGI): NCI-H522, read-out: TGI
[15] = tested on: HCT-116; test: panel of 60 human tumor cell lines, growth inhibition (Colon Cancer); details: Homo sapiens; for GI50: HCT-116, HCT-116; for CC50: HCT-116, read-out: LC50; for IC (TGI): HCT-116, read-out: TGI
[16] = tested on: UO-31; test: panel of 60 human tumor cell lines, growth inhibition (Renal Cancer); details: Homo sapiens; for GI50: UO-31; for CC50: UO-31, read-out: LC50; for IC (TGI): UO-31, read-out: TGI
[17] = tested on: SNB-19; test: panel of 60 human tumor cell lines, growth inhibition (CNS Cancer); details: Homo sapiens; for GI50: SNB-19; for CC50: SNB-19, read-out: LC50; for IC (TGI): SNB-19, read-out: TGI
[18] = tested on: RXF 393; test: panel of 60 human tumor cell lines, growth inhibition (Renal Cancer); details: Homo sapiens; for CC50: RXF 393, read-out: LC50; for IC (TGI): RXF 393, read-out: TGI
[19] = tested on: OVCAR-5; test: panel of 60 human tumor cell lines, growth inhibition (Ovarian Cancer); details: Homo sapiens; for GI50: OVCAR-5; for CC50: OVCAR-5, read-out: LC50; for IC (TGI): OVCAR-5, read-out: TGI
[20] = RXF 393, RXF 393, NCI five dose

C=C1C(=O)O[C@H]2[C@H]1CC/C(COC(=O)Nc1n[nH]c(SC)n1)=C\CC[C@@]1(C)O[C@@H]21 [JVM 64, ((1aR,7aS,10aS,10bS,E)-1a-methyl-8-methylene-9-oxo-1a,2,3,6,7,7a,8,9,10a,10b-decahydrooxireno[2′,3′:9,10]cyclodeca[1,2-b]furan-5-yl)methyl-(5-(methylthio)-1H-1,2,4-triazol-3-yl)carbamate]
GI50 [1]: 1.71 µM | CC50 [1]: 33.4 µM | IC (TGI) [1]: 10.1 µM | GI50 ([2]; 5-dose assay): 0.62 µM | GI50 ([2]; NCI five dose): 0.626 µM | GI50 ([2]; leukemia cell line CCRF-CEM): 0.62 µM | CC50 [2]: 55.8 µM | IC (TGI) [2]: 3.56 µM | GI50 [3]: 1.85 µM | CC50 [3]: 17.9 µM | IC (TGI) [3]: 4.86 µM | GI50 [4]: 2.23 µM | CC50 [4]: 70.9 µM | IC (TGI) [4]: 5.31 µM | GI50 [5]: 11.7 µM | CC50 [5]: > 100 µM | IC (TGI) [5]: 35.8 µM | GI50 [6]: 2.56 µM | CC50 [6]: 27.8 µM | IC (TGI) [6]: 7.67 µM | GI50 [7]: 7.63 µM | CC50 [7]: 52.7 µM | IC (TGI) [7]: 21.5 µM | GI50 [8]: 24.7 µM | CC50 [8]: > 100 µM | IC (TGI) [8]: > 100 µM | GI50 [9]: 3.21 µM | CC50 [9]: 63.6 µM | IC (TGI) [9]: 14.1 µM | GI50 [10]: 3.49 µM | CC50 [10]: 38.4 µM | IC (TGI) [10]: 13.1 µM | GI50 [11]: 1.66 µM | CC50 [11]: 7.2 µM | IC (TGI) [11]: 3.45 µM | GI50 [12]: 4.01 µM | CC50 [12]: 41.5 µM | Percent Growth ([12]; Log10 Concentration −4.0): −91% | Percent Growth ([12]; Log10 Concentration −5.0): 17% | Percent Growth ([12]; Log10 Concentration −6.0): 101% | Percent Growth ([12]; Log10 Concentration −7.0): 108% | Percent Growth ([12]; Log10 Concentration −8.0): 104% | TGI [12]: 1.43E−5 | GI50 [13]: 1.6 µM | CC50 [13]: 15 µM | IC (TGI) [13]: 4.35 µM | GI50 [14]: 1.26 µM | CC50 [14]: 7.87 µM | IC (TGI) [14]: 3.17 µM | GI50 ([15]; 5-dose assay): 1.13 µM | GI50 ([15]; NCI five dose): 1.13 µM | CC50 [15]: 5.86 µM | IC (TGI) [15]: 2.6 µM | GI50 [16]: 1.98 µM | CC50 [16]: 34 µM | IC (TGI) [16]: 7.86 µM | GI50 [17]: 15.9 µM | CC50 [17]: > 100 µM | IC (TGI) [17]: 40 µM | GI50 ([18]; RXF 393, RXF 393, 5-dose assay): 0.9 µM | GI50 [18, 20]: 0.906 µM | CC50 [18]: 6.02 µM | IC (TGI) [18]: 2.41 µM | GI50 ([18]; RXF 393, renal cancer cell line RXF 393): 0.9 µM | GI50 [19]: 2.18 µM | CC50 [19]: 24 µM | IC (TGI) [19]: 5.92 µM

C=C1C(=O)O[C@H]2[C@H]1CC/C(COC(=S)n1ccnc1)=C\CC[C@@]1(C)O[C@@H]21 [JVM 66]
GI50 [1]: 39.3 µM | CC50 [1]: > 100 µM | IC (TGI) [1]: > 106 µM | GI50 ([2]; NCI five dose): 3.38 µM | CC50 [2]: > 100 µM | IC (TGI) [2]: 16.6 µM | GI50 [3]: 15.7 µM | CC50 [3]: 99.3 µM | IC (TGI) [3]: 39.5 µM | GI50 [4]: 12.9 µM | CC50 [4]: > 100 µM | IC (TGI) [4]: 42.4 µM | GI50 [5]: 61.4 µM | CC50 [5]: > 100 µM | IC (TGI) [5]: > 100 µM | GI50 [6]: 14.5 µM | CC50 [6]: > 100 µM | IC (TGI) [6]: 65.5 µM | GI50 [7]: 16.8 µM | CC50 [7]: 63.2 µM | IC (TGI) [7]: 12.6 µM | GI50 [8]: 30.1 µM | CC50 [8]: > 100 µM | IC (TGI) [8]: > 100 µM | GI50 [9]: 13.5 µM | CC50 [9]: > 100 µM | IC (TGI) [9]: 59.8 µM | GI50 [10]: 12.2 µM | CC50 [10]: 59.1 µM | IC (TGI) [10]: 26.9 µM | GI50 [11]: 16.8 µM | CC50 [11]: 85.7 µM | IC (TGI) [11]: 37.9 µM | GI50 [12]: > 100 µM | CC50 [12]: > 100 µM | Percent Growth ([12]; Log10 Concentration −4.0): 60% | Percent Growth ([12]; Log10 Concentration −5.0): 99% | Percent Growth ([12]; Log10 Concentration −6.0): 99% | Percent Growth ([12]; Log10 Concentration −7.0): 102% | Percent Growth ([12]; Log10 Concentration −8.0): 100% | TGI [12]: >1.00E−4 | GI50 [13]: 13.9 µM | CC50 [13]: 74.8 µM | IC (TGI) [13]: 32.3 µM | GI50 [14]: 5.19 µM | CC50 [14]: 66.9 µM | IC (TGI) [14]: 21.3 µM | GI50 ([15]; NCI five dose): 2.47 µM | CC50 [15]: 33 µM | IC (TGI) [15]: 7.03 µM | GI50 [16]: 8.37 µM | CC50 [16]: 58.1 µM | IC (TGI) [16]: 23.4 µM | GI50 [17]: 54.3 µM | CC50 [17]: > 100 µM | IC (TGI) [17]: > 100 µM | GI50 [18, 20]: 3.08 µM | CC50 [18]: 57.4 µM | IC (TGI) [18]: 11.4 µM | GI50 [19]: 13.5 µM | CC50 [19]: 78.1 µM | IC (TGI) [19]: 1760 µM
